# According to ChEMBL document CHEMBL5512629, “Insight into small-molecule inhibitors targeting extracellular nucleotide pyrophosphatase/phosphodiesterase1 for potential multiple human diseases” (Eur J Med Chem, 2024):
# Key:
# [1] = target: T1, Ectonucleotide pyrophosphatase/phosphodiesterase family member 1 (Homo sapiens, UniProt P22413); assay: Binding affinity to ENPP1 (unknown origin) assessed as inhibition constant
# T1 sequence (P22413 whole entry): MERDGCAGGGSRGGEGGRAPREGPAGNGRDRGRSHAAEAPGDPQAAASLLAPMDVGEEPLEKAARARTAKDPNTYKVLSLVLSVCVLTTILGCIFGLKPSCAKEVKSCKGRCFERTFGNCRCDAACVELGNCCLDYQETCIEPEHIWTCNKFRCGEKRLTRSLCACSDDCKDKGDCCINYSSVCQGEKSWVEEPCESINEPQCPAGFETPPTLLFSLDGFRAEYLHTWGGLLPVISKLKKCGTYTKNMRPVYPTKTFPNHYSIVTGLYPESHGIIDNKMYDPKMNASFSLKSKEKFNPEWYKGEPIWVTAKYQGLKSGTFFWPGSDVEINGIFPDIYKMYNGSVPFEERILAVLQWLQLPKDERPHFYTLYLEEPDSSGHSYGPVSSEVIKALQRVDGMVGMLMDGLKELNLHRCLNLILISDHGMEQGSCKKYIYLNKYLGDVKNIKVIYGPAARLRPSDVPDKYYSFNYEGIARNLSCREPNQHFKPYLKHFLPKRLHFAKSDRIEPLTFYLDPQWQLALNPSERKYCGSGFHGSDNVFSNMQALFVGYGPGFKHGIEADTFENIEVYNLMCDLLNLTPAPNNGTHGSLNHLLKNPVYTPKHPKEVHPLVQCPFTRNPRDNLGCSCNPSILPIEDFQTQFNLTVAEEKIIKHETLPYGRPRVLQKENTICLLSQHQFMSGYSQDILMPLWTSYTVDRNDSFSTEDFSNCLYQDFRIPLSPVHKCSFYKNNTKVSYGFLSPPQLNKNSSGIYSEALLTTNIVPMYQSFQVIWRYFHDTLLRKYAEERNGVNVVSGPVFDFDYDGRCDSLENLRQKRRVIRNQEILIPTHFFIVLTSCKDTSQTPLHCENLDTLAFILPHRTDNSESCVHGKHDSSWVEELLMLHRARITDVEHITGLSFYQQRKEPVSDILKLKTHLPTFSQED
# [2] = target: T1, Ectonucleotide pyrophosphatase/phosphodiesterase family member 1; assay: Inhibition of human ENPP1
# [3] = Oral bioavailability in mouse; type: ADME, organism-based; conditions: in vivo
# [4] = target: T1, Ectonucleotide pyrophosphatase/phosphodiesterase family member 1; assay: Inhibition of ENPP1 (unknown origin)
# [5] = target: T1, Ectonucleotide pyrophosphatase/phosphodiesterase family member 1; assay: Binding affinity to human ENPP1 assessed as inhibition constant
smiles,measurement,setting,value
Nc1ncnc2c1ncn2[C@@H]1O[C@H](COP(=O)(O)CP(=O)(O)OP(O)(O)=S)[C@@H](O)[C@H]1O,Ki,[1],20000 nM
COc1cc2cc(-n3cc(C)c4ccccc43)n3c4ccccc4c(C)c3c2cc1OC,IC50,[2],360 nM
Cn1nc(Cc2ccc(NS(N)(=O)=O)cc2)c2ccccc2c1=O,bioavailability,[3],65%
COc1ccc(NC(=O)CSc2nc3c(C)c(C#N)ncc3[nH]2)cc1O,IC50,[4],2060 nM
Cc1nc2ncnn2c(N(C)C)c1Cc1cccc(N)c1,IC50,[4],260000 nM
COc1cccc2c(N3CCC(CCP(=O)(O)O)CC3)ncnc12,Ki,[5],< 2 nM
O=C(/C=C/c1ccc(O)c(O)c1)O[C@H](Cc1ccc(O)c(O)c1)C(=O)O [ROSMARINIC ACID],Ki,[5],26.9 nM
